# From patent US7858329B2, “Antibody tools for the diagnostic use in the medical therapy with inhibitors of histone deacetylases” (TopoTarget Germany AG, priority 2002, dated 2010)
# Experiments:
# T-cell lymphomas = settings: phase II; cited from earlier work
# [1] = system: acetylated histone H3 and histone H4 in U937 cells; assay: Western blot of histone acetylation in U937 cells treated with HDACi; type: cell-based, human; settings: for levels of acetylated histone H3 and histone H4 by Western blot: treatment in vitro for 6-12 hours
# [2] = system: acetylated histone H4 in U937 cells; assay: Immunohistochemistry (T25) of U937 cells treated with HDACi; type: cell-based, human; settings: 12 hours, 1 mM, T25 antibody
# Experimental: To evaluate the specificity of the T25 antibody in immunohistochemistry (IHC), the inventors performed a preliminary test in an established cell line (U937 cells). […] Untreated cells, or cells treated for 12 hours with VPA (1 mM), were either processed for Western blot analysis (FIG. 3A), or fixed in formalin and then processed for immunohistochemistry (FIG. 1B). […] The T25 antibody can therefore be used for the analysis of histone acetylation levels by western blot analysis and immunohistochemistry (IHC).
# [3] = system: cells derived from "class A" (globally hypoacetylated) primary human breast tumors; assay: Apoptosis of cultured primary breast tumor cells treated with HDAC inhibitors; type: cell-based; settings: cells from four class A tumors
# Experimental: (§1) To establish whether this classification may have additional correlations with tumor biology and potential influences on the choice of clinical therapeutic treatments, the sensitivity of tumor cells derived from “class A” or “class B” primary human breast tumors to various HDAC inhibitors was evaluated in vitro (FIG. 7-8). To investigate this further, cells derived from excision surgery of primary breast tumors were cultured (on which in parallel IHC using the T25 antibody was performed to establish the histone acetylation levels in vivo) following standard procedures (Elenbaas et al., 2001, Genes Dev 15, 50-65). After a few passages in culture (in the absence of fetal bovine serum, to eliminate contamination of fibroblasts), the cell population is greatly enriched in tumor cells. The bulk populations of cells derived from four “class A” and three “class B” tumors were then treated with VPA, or TSA (FIGS. 7-8). […] The immunohistochemical classification as described here, can therefore be used to predict the response of tumor cells to treatment with HDAC inhibitors and could thus be used for prognostic predictions whether a patient should be treated with such inhibitors.
# [4] = system: cells derived from "class B" primary human breast tumors; assay: as above; type: cell-based; settings: cells from three class B tumors
# Experimental: as §1
# [5] = system: histone acetylation in peripheral blood mononuclear cells; assay: Flow cytometry of histone acetylation in blood mononuclear cells of patients under VPA treatment; type: in vivo, human; settings: 10 to 30 mg/kg/day
# Experimental: Histone acetylation analysis was performed according to the following procedure. Cells were fixed for 15 minutes in 1% formaldehyde in PBS. 1×10^6 cells/sample were washed with PBS+1% BSA and permeabilised with 200 μl of 0.1% Triton X100 in PBS for 10 min at room temperature (to allow for the antibody to reach acetylated nuclear proteins, such as histones). After washing with PBS+1% BSA pellets were incubated with 500 μl of 10% normal goat serum (NGS) in PBS for 20 min at 4° C. Histone acetylation levels were detected by incubation with T52 mouse monoclonal antibody (1 μg/ml in PBS+1% BSA). Detection was performed by incubation with a fluorescein isothiocyanate (FITC)-conjugated affinity pure F(ab′)2 fragment of goat anti-mouse IgG (Sigma) for 1 h at room temperature in the dark.
# [6] = Plasmatic VPA concentration in treated patients; type: in vivo, human; settings: 10 to 30 mg/kg/day
# Experimental: HDAC inhibitors are currently being tested for their clinical use in tumor patients (Marks et al., 2001, Nat Rev Cancer 1, 194-202). Therefore, the inventors evaluated the response to valproic acid, VPA (a HDAC inhibitor currently in clinical trials for several forms of cancer), in blood samples of patients subjected to VPA treatment. Peripheral blood was collected periodically before/at various times of VPA treatment (10 to 30 mg/kg/day; plasmatic VPA concentration: 0,75 mM), mononuclear cells were isolated by Ficoll analysis and then analyzed as described. […] The histone acetylation level measured in blood cells may serve as marker to evaluate the efficacy of HDAC inhibitor treatment of patients suffering from tumors, including solid tumors, to further orientate the treatment schedule.
# [7] = system: stage III/IV non-small cell lung cancer; settings: phase II, monotherapy; cited from earlier work
# [8] = system: histone acetylation in U-937 cells; assay: Flow cytometry of histone acetylation (T52 staining) in U937 cells; type: cell-based, human; settings: 10 ng/ml for 4 hrs, untreated cells 90
# Experimental: Human U-937 cells were grown in RPMI-1640 medium supplemented with 10% Fetal Bovine Serum in standard culture conditions.
# Exponentially growing U-937 cells were treated for 4 hrs with 10 ng/ml Trichostatin A (TSA, Sigma Aldrich). After the treatment cells were washed with cold phosphate buffer saline (PBS), counted and fixed in 1% formaldehyde in PBS for 15 minutes. Fixed cells were then washed, resuspended in PBS, and stocked at 4° C.
# Histone acetylation analysis was performed according to the following procedure. Cells were fixed for 15 minutes in 1% formaldehyde in PBS. 1×10^6 cells/sample were washed with PBS+1% BSA and permeabilised with 200 μl of 0.1% Triton X100 in PBS for 10 min at room temperature (to allow for the antibody to reach acetylated nuclear proteins, such as histones). After washing with PBS+1% BSA pellets were incubated with 500 μl of 10% normal goat serum (NGS) in PBS for 20 min at 4° C. Histone acetylation levels were detected by incubation with T52 mouse monoclonal antibody (1 μg/ml in PBS+1% BSA). […]
# Flow cytometry analysis was performed using a FACScan flow cytometer (Becton Dickinson), acquiring at least 10,000 events/sample. The instrument was equipped with a bandpass 530/30 nm optical filter for FITC fluorescence detection (FL1 channel) and a 650 nm longpass optical filter in front of the PI (FL3) channel detector. […]
# [9] = system: control-transduced (MCSV) primary tumor-derived cells; assay: Sensitivity to HDAC inhibitor of transduced primary tumor-derived cell culture; type: cell-based; settings: high histone H4 acetylation
# [10] = system: tumor cells transduced with HDAC/MTA constructs (HDAC-1, HDAC-2, MTA1); assay: as above; type: cell-based; settings: histone hypoacetylation
# Experimental: An aliquot of the cells was collected, and Western blot analysis (using antibodies directed against acetylated histone H4) was performed on protein extracts prepared from these cells, to verify that overexpression of either HDAC, or of MTA1, led to a decrease in histone acetylation levels of the tumor cells.
compound,measurement,setting,value
C/C=C1\NC(=O)[C@H]2CSSCC/C=C/[C@H](CC(=O)N[C@H](C(C)C)C(=O)N2)OC(=O)[C@H](C(C)C)NC1=O [depsipeptide],clinical outcome,T-cell lymphomas,used successfully
"CCCC(CCC)C(=O)O [VPA, valproic acid]",levels of acetylated histone H3 and histone H4 by Western blot,[1],drastic increase
same,acetylated histone H4 staining in immunohistochemistry,[2],increase in the intensity of staining and number of stained cell nuclei
same,apoptosis upon treatment with the HDAC inhibitors,[3],showed apoptosis
same,apoptosis upon treatment with the HDAC inhibitors,[4],totally resistant
same,"Histone acetylation levels, increase",[5]; after 7-days of treatment (day 8),> 3 fold
same,Histone acetylation levels,[5]; day 28-35,further increased
same,plasmatic VPA concentration,[6],"0,75 mM"
CCCC(=O)OCOC(=O)C(C)(C)C [Pivanex],clinical activity,[7],demonstrating activity
"CC(/C=C/C(=O)NO)=C\[C@@H](C)C(=O)c1ccc(N(C)C)cc1 [TSA, Trichostatin A]",acetylated histones H3 and H4 bands in Western blot,[1]; detection with T52 antibody (FIG. 9),greatly increased
same,levels of acetylated histone H3 and histone H4 by Western blot,[1],drastic increase
same,apoptosis upon treatment with the HDAC inhibitors,[3],showed apoptosis
same,apoptosis upon treatment with the HDAC inhibitors,[4],totally resistant
same,"mean fluorescence value (FL1-H), T52 staining",[8],450
same,sensitivity to treatment (apoptosis),[9],resistant
same,apoptosis,[10],up to 50%
